Laboratory results reported in ChEMBL document CHEMBL1145422, “Spongian diterpenoids from the sponge Spongia (Heterofibria) sp” (2007).

Assay: Effect on lysosomal activation in mouse splenocytes at 100 ug/mL relative to control
Assay type: functional

Row | SMILES | Activity [%]
1 | CC(=O)OC[C@]1(C)[C@@H]2CC[C@@]3(C)c4cocc4CC[C@@H]3[C@@]2(C)CC[C@@H]1OC(C)=O | 130
2 | CC(=O)OC[C@@]1(C)CCC[C@]2(C)[C@H]3CCc4cocc4[C@]3(C)CC[C@@H]12 | 130
